Measurements as given in PubChem BioAssay (NCI).
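GI50 = concentration required for 50% inhibition of growth. TGI marks complete inhibition of growth.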

How the values were obtained:
Experiment in all cases: inhibition of tumour cell growth, NCI panel, 384-well format
[1] = test system: 786-0 renal
[2] = test system: HOP-92 NSCLC
[3] = test system: IGROV1 ovarian
[4] = test system: MALME-3M melanoma
[5] = test system: MDA-MB-435 melanoma
[6] = test system: MDA-MB-468 breast
[7] = test system: MOLT-4 leukemia
[8] = test system: NCI/ADR-RES ovarian
[9] = test system: OVCAR-8 ovarian
[10] = test system: SK-OV-3 ovarian
[11] = test system: SNB-75 CNS
[12] = test system: SW-620 colon
[13] = test system: TK-10 renal

SMILES: C[C@H](NC(=O)c1c(N)nn2cccnc12)c1cc2cccc(C#Cc3cnn(C)c3)c2c(=O)n1-c1ccccc1
- GI50 [1]: 4.91 µM
- TGI [1]: 17.2 µM
- GI50 [2]: 0.47 µM
- TGI [2]: 4.04 µM
- GI50 [3]: 0.559 µM
- TGI [3]: 2.1 µM
- GI50 [4]: 6.62 µM
- TGI [4]: 20.5 µM
- GI50 [5]: 10.6 µM
- TGI [5]: 24.1 µM
- GI50 [6]: 0.507 µM
- TGI [6]: 3.34 µM
- GI50 [7]: 0.847 µM
- TGI [7]: 2.21 µM
- GI50 [8]: 5.28 µM
- TGI [8]: 16.2 µM
- GI50 [9]: 8.07 µM
- TGI [9]: 21.3 µM
- GI50 [10]: 2.19 µM
- TGI [10]: 12.5 µM
- GI50 [11]: 0.806 µM
- TGI [11]: 4.38 µM
- GI50 [12]: 15.3 µM
- TGI [12]: 28.7 µM
- GI50 [13]: 3.93 µM
- TGI [13]: 17.3 µM
